Data on seven molecules can be found in patent US7572606B1 (Nereus Pharmaceuticals, Inc., priority 2005, dated 2009).

Where “and” joins values, the source holds several entries; their conditions need not be identical. Identical values can stand only once. Like-named read-outs stand apart in the source and are kept apart here.

In one data set the test system is HL-60/MX2. Nature of the data set: Cell growth inhibition, resazurin, 48 h. Conditions: HL-60/MX2, 48 h drug exposure. The procedure: (§1) The DNA binding agent Mitoxantrone was included as a control, as HL-60/MX2 cells are reported to be resistant to this chemotherapeutic agent (Harker W. G. et al. 1989).
(§2) Concentrations ranging from 6.32 μM to 2 nM were tested for II-2 and II-4.
For orientation: Alamar Blue is a resazurin reagent that responds to reducing activity.

Data set [1] deals with NF-κB-mediated luciferase activity in HEK293 NF-κB/Luc cells. Nature of the data set: NF-κB-mediated luciferase reporter gene assay. Type of data set: cell-based, human. The settings on record: for EC50: 6 h TNF-α stimulation; for luciferase activity upon TNF-α stimulation: pretreatment of NF-κB/Luc 293 cells. The method, then:
The HEK293 NF-κB/luciferase reporter cell line is a derivative of the human embryonic kidney cell line (ATCC; CRL-1573) and carries a luciferase reporter gene under the regulation of 5×NF-κB binding sites. […] When performing the luciferase assay, the DMEM basal medium was replaced with phenol-red free DMEM basal medium and the G418 was omitted.
For NF-κB-mediated luciferase assays, HEK293 NF-κB/luciferase cells were seeded at 1.5×10^4 cells/well in 90 μl phenol-red free DMEM complete medium into Corning 3917 white opaque-bottom tissue culture plates. For Formulae II-2, II-4, II-5A and II-18, a 400 μM starting dilution was made in 100% DMSO and this dilution was used to generate an 8-point half log dilution series. […] For formula II-20, a 2.5 mM or 8 mM starting dilution was made in 100% DMSO and the final test concentrations ranged from 6.3 μM to 2.0 nM or 20 μM to 6.3 nM respectively. The plates were returned to the incubator for 1 hour. After 1 hr pretreatment, 10 μl of a 50 ng/ml TNF-α solution, prepared in the phenol-red free DMEM medium was added, and the plates were incubated for an additional 6 hours.
At the end of the TNF-α stimulation, 100 μl of Steady Lite HTS luciferase reagent (Packard Bioscience) was added to each well and the plates were left undisturbed for 10 min at room temperature before measuring the luciferase activity. The relative luciferase units (RLU) were measured by using a Fusion microplate fluorometer (Packard Bioscience).
NF-κB inducible luciferase activity was measured at 6 hours.

The test system of a further data set is U266. Description: Cell growth inhibition, resazurin, 48 h. Type of data set: cell-based, human. Conditions: U266, 48 h drug exposure, read-out: EC50.
In the next data set the test system is HL-60. Description: Cell growth inhibition, resazurin, 48 h. Conditions: Homo sapiens, HL-60, 48 h, HL-60, 48 h drug exposure. The procedure: as §1, §2
The next data set relates to OVCAR-3. Description: Cell growth inhibition, resazurin, 48 h. Type of data set: cell-based, human. Conditions: OVCAR-3, 48 h drug exposure.
The next data set deals with RPMI 8226. Description: Cell growth inhibition, resazurin, 48 h. The settings on record: RPMI 8226, 48 h drug exposure. The method, then: (§3) RPMI 8226 (CCL-155), HT-29 (HTB-38), and B16-F10 (CRL-6475) cells were purchased from ATCC. RPMI 8226 cells were maintained in RPMI 1640 media supplemented with 10% (v/v) FBS, 2 mM L-glutamine, 1 mM sodium pyruvate and Penicillin/Streptomycin at 100 IU/ml and 100 μg/ml, respectively. HT-29 cells were maintained in McCoys 5A supplemented with 10% (v/v) FBS, 2 mM L-glutamine, 1 mM sodium pyruvate, 1% (v/v) non-essential amino acids, 10 mM HEPES and Penicillin/Streptomycin at 100 IU/ml and 100 μg/ml, respectively. B16-F10 cells were maintained in DMEM supplemented with 10% (v/v) FBS, 2 mM L-glutamine, 10 mM HEPES and Penicillin/Streptomycin at 100 IU/ml and 100 μg/ml, respectively.
(§4) RPMI 8226 cells were seeded at 2×10^4 cells/well in 90 μl RPMI media containing 10% (v/v) FBS or 1% (v/v) FBS into 96 well black-walled, clear-bottom tissue culture plates. […] Formulae II-16, II-17 and Formula II-18 were serially diluted in media containing 1% or 10% FBS and added in triplicate to the test wells. […] The final concentration of Formula II-18 ranged from 2 μM to 630 pM.

The target of data set [2] is T1, trypsin-like activity of rabbit muscle 20S proteasome (Oryctolagus cuniculus, UniProt G1SWK8).
T1 construct: EC50 Trypsin-like; other: purified rabbit 20S proteasome, Boc-LRR-AMC; other: under the conditions tested
T1 sequence (G1SWK8 1-271): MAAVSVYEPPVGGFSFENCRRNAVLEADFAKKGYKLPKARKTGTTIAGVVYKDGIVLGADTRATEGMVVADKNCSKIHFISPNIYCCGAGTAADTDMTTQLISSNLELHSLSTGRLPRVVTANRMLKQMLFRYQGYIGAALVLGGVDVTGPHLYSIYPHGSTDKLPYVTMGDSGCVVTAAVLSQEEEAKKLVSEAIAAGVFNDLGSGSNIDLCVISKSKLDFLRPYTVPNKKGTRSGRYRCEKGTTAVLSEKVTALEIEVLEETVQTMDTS
Nature of the data set: In vitro inhibition of 20S proteasome, Boc-LRR-AMC. Type of data set: biochemical.

Data set [3] deals with caspase-like (PGPH) activity of rabbit muscle 20S proteasome (Oryctolagus cuniculus, UniProt A0A5F9DQW2). Nature of the data set: In vitro inhibition of 20S proteasome, Z-LLE-AMC.
The subject of another data set is B16-F10. Description: Cell growth inhibition, resazurin, 48 h. Type of data set: cell-based, mouse. The settings on record: B16-F10, 48 h drug exposure. The method, then:
as §3, §4

The subject of another data set is MES-SA/Dx5. Nature of the data set: Cell growth inhibition, resazurin, 48 h. The settings on record: for EC50: MES-SA/Dx5, 48 h drug exposure. The method, then: as §2
Data set [4] has as its target T2, chymotrypsin-like activity of rabbit muscle 20S proteasome (Oryctolagus cuniculus, UniProt G1T4Q9).
T2 sequence (G1T4Q9 1-263): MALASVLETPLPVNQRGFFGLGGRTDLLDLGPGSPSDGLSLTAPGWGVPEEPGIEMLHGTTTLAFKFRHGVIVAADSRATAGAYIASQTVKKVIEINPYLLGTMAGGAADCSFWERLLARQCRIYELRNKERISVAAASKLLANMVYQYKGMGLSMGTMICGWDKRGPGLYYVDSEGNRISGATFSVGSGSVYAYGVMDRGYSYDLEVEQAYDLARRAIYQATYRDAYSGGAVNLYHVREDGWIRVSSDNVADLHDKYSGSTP
Description: In vitro inhibition of 20S proteasome, suc-LLVY-AMC.

In another data set the test system is MDA-MB-231. Nature of the data set: Cell growth inhibition, resazurin, 48 h. The class given is cell-based, human. Conditions: MDA-MB-231, 48 h drug exposure.
A further data set concerns PC-3. Nature of the data set: Cell growth inhibition, resazurin, 48 h. Conditions: Homo sapiens, PC-3, 48 h, PC-3, 48 h drug exposure.
The test system of a further data set is NCI-H292. Description: Cell growth inhibition, resazurin, 48 h. The settings on record: NCI-H292, 48 h drug exposure. The class given is cell-based, human.
For another data set, the system named is HT-29. Nature of the data set: Cell growth inhibition, resazurin, 48 h. The class given is cell-based, human. Conditions: HT-29, 48 h drug exposure. The procedure: as §3, §4
Where [5] appears, read: Mus musculus, B16-F10, 48 h, read-out: EC50.
The mark [6] stands for this setting: read-out: EC50 Chymotrypsin-like, purified rabbit 20S proteasome, suc-LLVY-AMC.
The mark [7] stands for this setting: read-out: EC50 Caspase-like, purified rabbit 20S proteasome, Z-LLE-AMC.

Chain of caspase-like (PGPH) activity of rabbit muscle 20S proteasome (A0A5F9DQW2 1-212): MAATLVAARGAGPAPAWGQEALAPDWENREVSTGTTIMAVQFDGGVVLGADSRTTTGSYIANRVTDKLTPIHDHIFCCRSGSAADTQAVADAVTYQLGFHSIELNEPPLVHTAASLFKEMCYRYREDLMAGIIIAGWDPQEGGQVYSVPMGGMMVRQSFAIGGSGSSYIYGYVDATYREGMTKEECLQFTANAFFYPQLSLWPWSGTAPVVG

With `O=C1c2c(O)ccc(O)c2C(=O)c2c(NCCNCCO)ccc(NCCNCCO)c21` [Mitoxantrone, reference compound], the EC50 (in general, the concentration needed to bring the measured effect to its halfway point) was 827 nM and 1340 nM and 1170 nM in the data set with HL-60/MX2; 1410 nM in the data set with HL-60/MX2 (Homo sapiens, HL60/MX2, 48 h).
As for `C[C@@]12OC(=O)[C@]1([C@@H](O)C1CCCCC1)NC(=O)[C@@H]2CCBr` [Formula II-4], the EC50 turned out to be 88 nM in [1] (1 h pretreatment, read-out: EC50); 67 nM in [1] (Homo sapiens, HEK293, 1 h pretreatment, read-out: EC50); 34 nM with U266 (Homo sapiens, U-266, 48 h); 39 nM with U266; 143 nM in the data set on HL-60; 97 nM with HL-60/MX2 (Homo sapiens, HL60/MX2, 48 h). Moreover, the EC50 in the data set with OVCAR-3 (Homo sapiens, read-out: EC50) is over 6320 nM; in the data set on RPMI 8226 (Homo sapiens, RPMI-8226, 48 h), 57 nM; with RPMI 8226, 51 nM; in data set [3] (read-out: EC50 Caspase-like (PGPH)), 850 nM and 637 nM; in the data set with B16-F10 (setting [5]) it was 163 nM; in the data set on MES-SA/Dx5 (Homo sapiens, MES-SA/Dx5, 48 h), 178 nM. A half-maximal effect in the data set with MES-SA/Dx5 (EC50) was put at 93 nM. For the same molecule, in data set [1], the “luciferase activity upon TNF-α stimulation” value was “dose-dependent decrease of luciferase activity”. The “inhibition of the trypsin-like activity of the 20S proteasome” value (“inhibition” for short) in [2] is “able to inhibit the trypsin-like activity”.
`C[C@@]12OC(=O)[C@]1([C@@H](O)[C@H]1CCC[C@H]3O[C@@H]13)NC(=O)[C@@H]2CCCl` [Formula II-5A]: the EC50 was 33 nM in data set [1] (1 h pretreatment); 2 to 11 nM in data set [4]; 7 nM in [4] (setting [6]); 61 ± 4.6 nM in the data set with MDA-MB-231 (Homo sapiens, MDA-MB-231, 48 h); 80 nM in the data set with OVCAR-3 (Homo sapiens, OVCAR-3, 48 h); 64 nM in the data set on OVCAR-3. Besides, the EC50 was 109 ± 15 nM in the data set on PC-3; 90 nM in data set [2] (purified rabbit 20S proteasome, Boc-LRR-AMC); 535 nM and 438 nM in data set [3] (read-out: EC50 Caspase-like (PGPH), purified rabbit 20S proteasome, Z-LLE-AMC); 102 ± 19 nM with NCI-H292 (Homo sapiens, NCI-H292, 48 h); 67 ± 17 nM in the data set on HT-29 (Homo sapiens, HT-29, 48 h); 78 ± 11 nM with B16-F10 (Mus musculus, B16-F10, 48 h). Besides, in [1], the “luciferase activity upon TNF-α stimulation” value is “dose-dependent decrease of luciferase activity”. Besides, the “inhibition” value in data set [2] (under the conditions tested) is listed as “able to inhibit the trypsin-like activity”.
For the molecule `C[C@@]12OC(=O)[C@]1([C@@H](O)C1CCCCC1)NC(=O)[C@@H]2CCCl` [Formula II-2], the “luciferase activity upon TNF-α stimulation” value in data set [1] is “dose-dependent decrease of luciferase activity”. The EC50 was 39 nM in the data set on U266; 237 nM with HL-60; 49 nM in the data set on RPMI 8226 (Homo sapiens, RPMI-8226, 48 h); 1300 nM and 1700 nM in data set [3] (setting [7]); 129 ± 21 nM in the data set with HT-29 (Homo sapiens, read-out: EC50); 194 nM in the data set with B16-F10 (setting [5]). Moreover, the EC50 with MES-SA/Dx5 (Homo sapiens, MES-SA/Dx5, 48 h) is 220 nM; with MES-SA/Dx5, 138 nM. Also, the “inhibition” value in data set [2] (under the conditions tested) was “able to inhibit the trypsin-like activity”.
Turning to `CC(=O)O[C@H]1C(=O)[C@@]2(C)[C@H]([C@H](OC(=O)c3ccccc3)[C@]3(O)C[C@H](OC(=O)[C@H](O)[C@@H](NC(=O)c4ccccc4)c4ccccc4)C(C)=C1C3(C)C)[C@]1(OC(C)=O)CO[C@@H]1C[C@@H]2O` [Paclitaxel, reference compound], the “% cytotoxicity” value in the data set on MES-SA/Dx5 (human, 48 h) is listed as 78 ± 1%.
With `C[C@@]12OC(=O)[C@]1([C@@H](O)[C@H]1CCC[C@@H]3O[C@H]13)NC(=O)[C@@H]2CCCl` [Formula II-5B], the EC50 in data set [1] (1 h pretreatment) was 279 nM; in [4] it was 13 to 88 nM; in data set [4] (setting [6]) it was 85 nM; in the data set on MDA-MB-231 it was 957 nM; with OVCAR-3 (Homo sapiens, OVCAR-3, 48 h) it was 1320 nM; in the data set with PC-3 it was 1790 nM. Besides, the EC50 in data set [3] (setting [7]) was 3800 nM and 2900 nM; in the data set with NCI-H292 (Homo sapiens, NCI-H292, 48 h) it was 992 nM; in the data set on NCI-H292, 1250 nM; in the data set on HT-29, 1210 nM; in the data set with B16-F10 it was 1140 nM; with B16-F10 (Mus musculus, B16-F10, 48 h) it was 1270 nM. In addition, the “luciferase activity upon TNF-α stimulation” value in data set [1] is recorded as “dose-dependent decrease of luciferase activity”. In [2] (under the conditions tested), the “inhibition” value was “able to inhibit the trypsin-like activity”.
Regarding `CC[C@H]1C(=O)N[C@@]2([C@@H](O)C3CCCCC3)C(=O)O[C@@]12C` [Formula II-3], the EC50 in the data set on U266 (Homo sapiens, U-266, 48 h) is over 20000 nM; in the data set on RPMI 8226 (Homo sapiens, RPMI-8226, 48 h), over 20000 nM; in data set [3] (read-out: EC50 Caspase-like), over 20000 nM; in the data set on HT-29 (Homo sapiens, read-out: EC50) it was over 20000 nM; with MES-SA/Dx5 (Homo sapiens, MES-SA/Dx5, 48 h), over 20000 nM. Moreover, in data set [2], the “inhibition” value was “able to inhibit the trypsin-like activity”.
